Assay [1] relates to Xenopus endoderm explants. Put plainly: nkx2-1 in situ hybridization of Xenopus endoderm explants. It counts as cell-based, Xenopus laevis. Particulars: sox2 morpholino knock down; explants analysed at stage NF35. As for the experimental part:
Xenopus laevis adults were purchased from the Nasco (Fort Atkinson, Wis.), and housed according to CCHMC IACUC protocols. Ovulation, in vitro fertilization, and de-jellying of embryos were performed as described (Sive et al., 2000). A mixture of previously validated Sox2 morpholinos (MOs; Van Raay et al., 2005) targeting the 5′UTR (Sox2-UTR MO) and the ATG start codon (Sox2-ATG MO) were injected at the 8-cell stage into each vegetal blastomere (2 ng total MO per blastomere, 8 ng total per embryo) to target endoderm. MOs were synthesized and purchased from GeneTools. Equal amount of control MO was used in control injections.
For Xenopus explant studies, stage NF20 foregut endoderm tissue was micro-dissected in 1×MBS (Modified Barth's Saline; Sive et al., 2000)+50 ug/mL gentamycin sulfate (MP Biochemicals), +4% Ficoll-400 (Sigma) and explants were then cultured in 0.5×MBS+0.1% Fatty Acid Free BSA (Fisher)+50 ug/mL gentamycin sulfate with or without the following concentrations of small molecules or recombinant proteins from stages […] (approximately 48 hours): 3.5 μM Bio (Tocris), 50 ng/mL recombinant human BMP4 (R&D systems).
In situ hybridization on mouse sections was performed by generating DIG-labeled probes from linearized mouse cDNA plasmids. […]

The test system of a further assay is AFG spheroids. Put plainly: Dorsal-ventral patterning / respiratory induction of anterior foregut spheroids (qPCR, IF). The format is cell-based, human. The note with it: TGFβ inhibitor added during foregut induction; day 9 spheroids. The method, then: (§1) Alternately, for the generation of anterior foregut spheroids, from definitive endoderm, cells were treated with FGF4 (500 ng mL-1, R&D systems), Noggin (200 ng mL-1) for 3 days in RPMI 1640 with 2% dFBS. Additional factors were tested during this time (described in results), such as CHIR99021 (“chiron” or “chr”, 2 μM, Tocris), Wnt3a (500 ng mL-1, R&D systems), SB431542 (10 μM, Tocris), DEAB (10 μM, Sigma), and retinoic acid (2 μM).
Anterior foregut spheroids were transferred into 50 μL droplets of Matrigel, and are cultured for 3-58 days in the base (“Gut”) media of Advanced DMEM/F12 (ThermoFisher Scientific) supplemented with B27 supplement (1×, ThermoFisher Scientific), N2 supplement (1×, ThermoFisher Scientific), HEPES (13 mM, ThermoFisher Scientific), L-Glutamine (2 mM ThermoFisher Scientific), penicillin/streptomycin (1×, ThermoFisher Scientific), and EGF (100 ng mL^−1, R&D systems). In addition to this base media, the first three days were supplemented with Noggin (200 ng mL^−1), FGF10 (50 ng mL^−1), and CultureOne supplement (1×, ThermoFisher Scientific). […]
Spheroid and organoids were harvested in total, including the embedding matrigel. […] For qRT-PCR, Applicant used Quantitect SYBR-Green master mix (Qiagen) and ran the reaction on a QuantStudio 6 machine (ThermoFisher Scientific). […]
(In general: In qPCR the cycle at which signal appears reflects the starting amount.)

The next assay has as its system foregut spheroids. Put plainly: Anterior-posterior patterning of foregut spheroids (qPCR, IF). The format is cell-based, human. Particulars: TGFβ inhibitor added during foregut induction; SB431542, 10 μM. As for the experimental part:
Confluent hPSC cultures were treated with Acutase (STEMCELL Technologies) to resuspend as single cells in mTeSR1 and Y-27632 (10 μM, Tocris) and plated on Matrigel. On the following day, differentiation into definitive endoderm was carried out as previously described (McCracken et al., 2014). Briefly, cells were treated with Activin A (100 ng mL-1, R&D systems, Minneapolis, Minn.) and BMP4 (50 ng mL-1, R&D systems) on the first day in RPMI 1640 media (Life Technologies). Cells in the following two days were treated with only Activin A (100 ng mL-1) in RPMI 1640 with increasing concentrations 0.2% and 2% of HyClone defined fetal bovine serum (dFBS, GE Healthcare Life Sciences).
For anterior foregut monolayer cultures, cells were treated for 3 days in Noggin (200 ng mL-1) in RPMI 1640 with 2% dFBS, with all-trans retinoic acid (2 μM, Sigma, St. Louis, Mo.) the 3rd day.
as §1
Tissue cultures were fixed with 4% paraformaldehyde at either room temperature for 15 minutes, 4° C. for 2 hours for cryosectioning, or 4° C. overnight for paraffin embedding/sectioning and mouse embryos. For paraffin embedding and sectioning, following fixation, tissues were dehydrated and embedded into paraffin blocks. Afterwards, paraffin-sectioned slides were deparaffinized and subjected to antigen retrieval in 10 mM sodium citrate for 30 minutes prior to staining. For cryosectioning, tissues were thoroughly washed in PBS, left in 30% sucrose overnight, embedded in OCT compound (VWR), and sectioned at a thickness of 8 μm. Commonly, slides were then permeabilized with 0.5% TritonX-100 in PBS for 10 minutes, blocked in 5% normal donkey serum (Jackson ImmunoResearch) for 1 hour, and incubated in primary antibody overnight at 4° C. On the next day, slides were thoroughly washed in PBS, incubated in secondary antibody (at 1:500) for 1 hour, and then thoroughly washed again. For EdU visualization, Applicant used the Click-iT EdU Alexa Fluor 488 Imaging Kit (Invitrogen) prior to blocking. For wholemount immunofluorescence staining, embryos were placed in 100% methanol immediately after fixation. Embryos were then permeabilized with Dent's Bleach (4:1:1 MeOH:DMSO:30% H2O2) for 2 hours at room temperature, rehydrated with methanol washes, and blocked for several hours at room temperature to overnight at 4° C. Primary antibodies were applied and embryos incubated overnight at 4° C. Then, embryos were thoroughly washed in 0.1% TritonX-100 in PBS before incubating in secondary antibodies overnight at 4° C. Finally, embryos were washed again, dehydrated with methanol washes, and cleared with Murray's Clear (2:1 benzyl benzoate:benzyl alcohol, Sigma) at least 15 minutes prior to imaging. For a list of antibodies and dilutions used, please see Table 2.
Spheroid and organoids were harvested in total, including the embedding matrigel. Collagen plugs from the organotypic raft cultures were first removed from the transwell on day 14, and subsequently harvested in total. Total RNA was isolated using the NucleoSpin RNA kit (Macherey-Nagel) and reverse transcribed to cDNA using the SuperScript VILO cDNA synthesis kit (ThermoFisher Scientific). For qRT-PCR, Applicant used Quantitect SYBR-Green master mix (Qiagen) and ran the reaction on a QuantStudio 6 machine (ThermoFisher Scientific). For a list of primers used, please see Table 1.

For assay [2], the system named is anterior foregut (AFG) cultures. Put plainly: Doxycycline-induced CDX2 in anterior foregut cultures (IF quantification). The format is cell-based, human. Particulars: AFG cultures treated for 1 day. As for the experimental part:
Human embryonic stem cell (hESC) line H1 (WA01, person) were purchased from WiCell. iPSC line iPS106 was generated in-house and approved by the institutional review board at CCHMC. All hPSCs were maintained on feeder-free cultures: cells were plated on hESC-qualified Matrigel (BD Biosciences, San Jose, Calif.) and maintained at 37° C. with 5% CO2 with daily replacement of mTeSR1 media (STEMCELL Technologies, Vancouver, Canada); cells were passaged routinely every 4 days using Dispase (STEMCELL Technologies). The HA-tagged SOX2, CDX2, or FANCA dox-inducible lines were generated by first cloning the human SOX2 ORF, CDX2 ORF, or FANCA ORF into pINDUCER20 (respectively) (Addgene #44012, Meerbrey et al., 2011). Next, lentivirus was generated with help of the Viral Vector Core Facility at CCHMC. The lentivirus for HA-SOX2 and CDX2 were transduced into hESCs with 2 μL of virus; these lines were maintained on selection with mTeSR1 and G418 (500 μg mL-1, ThermoFisher Scientific). The lentivirus for FANCA were transduced prior to the iPS106 line generation, as FANCA is required for maintenance of hPSC properties. The hESC H1 line (and transduced derivatives) was used in all experiments excluding Fanconi Anemia modeling in HEOs, which used the iPS106 line. […]

Assay [3] has as its system dorsally-patterned AFG spheroids. Put plainly: Outgrowth of dorsally-patterned AFG spheroids into esophageal organoids. It counts as cell-based, human. Particulars: added from day 6 to day 13. The method, then:
Anterior foregut spheroids were transferred into 50 μL droplets of Matrigel, and are cultured for 3-58 days in the base (“Gut”) media of Advanced DMEM/F12 (ThermoFisher Scientific) supplemented with B27 supplement (1×, ThermoFisher Scientific), N2 supplement (1×, ThermoFisher Scientific), HEPES (13 mM, ThermoFisher Scientific), L-Glutamine (2 mM ThermoFisher Scientific), penicillin/streptomycin (1×, ThermoFisher Scientific), and EGF (100 ng mL^−1, R&D systems). In addition to this base media, the first three days were supplemented with Noggin (200 ng mL^−1), FGF10 (50 ng mL^−1), and CultureOne supplement (1×, ThermoFisher Scientific). FGF10 and CultureOne supplementation is continued until the end of the first week in three-dimensional culture. Media was replaced every 3-4 days. For EdU labeling, media was supplemented with EdU (10 μM Invitrogen) for a defined period of time, and was removed by washing with sterile PBS twice before replacing with media without EdU.

The text below walks through data of patent publication US12297457B2, “Esophageal tissue and/or organoid compositions and methods of making same” (Children's Hospital Medical Center, priority 2017, dated 2025).

As to `O=C1Nc2cc(Br)ccc2/C1=C1/Nc2ccccc2/C1=N\O` [Bio], in assay [1], the nkx2-1 expression entry was “did not activate nkx2-1 expression”. For the molecule `NC(=O)c1ccc(-c2nc(-c3ccc4c(c3)OCO4)c(-c3ccccn3)[nH]2)cc1` [TGFβ inhibitor, SB431542, reference compound], in the assay with AFG spheroids, the “upregulation of NKX2-1 on respiratory induction” value is “reduces upregulation of NKX2-1”. Further, the posterior foregut markers result in the assay on foregut spheroids is reported as “increase in posterior foregut markers”.

For the molecule `C[C@H]1c2cccc(O)c2C(=O)C2=C(O)[C@]3(O)C(=O)C(C(N)=O)=C(O)[C@@H](N(C)C)[C@@H]3[C@@H](O)[C@@H]21` [doxycycline, Doxycycline], the “doxycycline concentration at which CDX2 induction saturates” value in assay [2] was 100 to 500 ng/mL.

B1: FGF10: recombinant human FGF10 (protein, UniProt O15520 38-208, looked up)
Fibroblast growth factor 10: QALGQDMVSPEATNSSSSSFSSPSSAGRHVRSYNHLQGDVRWRKLFSFTKYFLKIEKNGKVSGTKKENCPYSILEITSVEIGVVAVKAINSNYYLAMNKKGKLYGSKEFNNDCKLKERIEENGYNTYASFNWQHNGRQMYVALNGKGAPRRGQKTRRKNTSAHFLPMVVHS
Consider B1, for which, in assay [3], the “efficiency of spheroid to organoid outgrowth” value is “improved efficiency of spheroid to organoid outgrowth”. Besides, the “patterning and differentiation into esophageal organoids” value in assay [3] (data not shown) is given as “did not affect”.
